Experiment: In vitro release of hydrocortisone (modified USP dissolution apparatus)
Assay type: physicochemical
Details: after the first two hours
Procedure: The radioactively labelled hydrocortisone was entrapped in two steps using a 5% ethanolic solution at each step. Release of entrapped hydrocortisone at pH 7.5 was measured using a modified USP dissolution apparatus with a basket of 5 µm mesh and a stirring speed of 150 rpm. Sixty percent of the entrapped hydrocortisone was released in the first two hours with a further 15% released over the next six hours. The dissolution rate of free radioactively labelled hydrocortisone was also measured.

## C[C@]12CCC(=O)C=C1CC[C@@H]1[C@@H]2[C@@H](O)C[C@@]2(C)[C@H]1CC[C@]2(O)C(=O)CO [free hydrocortisone, hydrocortisone]
  total dissolution: total dissolution occurred in another six hours
